This note sets out measurements from patent US20090232909A1, “Method for determining physiological effects of hemoglobin” (priority 1999, published 2009).

Entries after “also recorded” stand apart in the source; their conditions may differ.

In assay [1] the test system is inside-out vesicles (IOV). Description: Transnitrosylation of inside-out vesicles (IOV) by SNO-Hb. The conditions noted are these: IOVs (or source RBCs) treated before incubation with SNO-Hb. It counts as biochemical. As for the experimental part:
RBCs derived from fresh venous blood and suspended in oxygen-purged phosphate-buffered saline (PBS) were exposed in gas-tight vials to NO, added as aliquots of oxygen-purged NO-saturated PBS to yield the specified NO:heme ratios based on spectrophotometric assessment of heme content. Exposure to NO was for 5 mins followed by rinses in PBS at 21% O2. RBCs were lysed in 10 mM MOPS, 0.1 mM DTPA, pH 7, followed by centrifugation at 20,000×g for 10 mins to produce membrane and cytosolic fractions, which were solubilized in 1% TX-100. Quantification of NO groups was by photolysis/chemiluminescence (McMahon, T. J. & Stamler, J. S., Meth. Enzymol. 301:99-114, 1999). SNO content was measured as NO removed by treating sample aliquots for 5 mins with HgCl2 at 5-fold molar excess over estimated thiol content (Gow, A. J. & Stamler, J. S., Nature 391:169-173, 1998; Gow, A. J. et al., Proc. Natl. Acad. Sci. USA 96:9027-9032, 1999; McMahon, T. J. & Stamler, J. S., Meth. Enzymol. 301:99-114, 1999). IOVs were prepared from outdated RBCs following Kondo (Kondo, T., Meth. Enzymol. 171:217-225, 1989) and stripped of peripheral membrane-bound proteins by washing for 60 mins in 0.5 M NaCl/100 mM Tris at pH 8. Chymotrypsin treatment of IOVs was for 15 mins at pH 7 and 37° C. with 5 U enzyme/mg IOV protein. For transnitrosylation, IOVs were incubated with SNO-Hb (50 nmoles SNO-Hb/mg IOV protein, about 10-fold excess over AE1) for 15 mins at pH 7 and 37° C. SNO-Hb was prepared from free or immobilized HbA (Apex) by selective S-nitrosylation of cysβ93 with S-nitroso-cysteine (Jia, L. et al., Nature 380:221-226, 1996; Stamler, J. S. et al., Science 276:2034-2037, 1997; McMahon, T. J. & Stamler, J. S., Meth. Enzymol. 301:99-114, 1999). Hb was immobilized on cyanogen bromide-activated Sepharose 4b.
Immunoprecipitation was carried out by incubation of TX-100 or NP-40 extracts with antibodies followed by protein G-Sepharose. […] Binding of SNO-Hb to IOVs was assessed in 10 mM MOPS buffer, pH 7, at room temperature and 21% O2. Incubation was for 15 mins before IOVs were solubilized in 1% TX-100, and heme content was assessed spectrophotometrically. When employed, RBCs were treated for 60 mins with DIDS (0.1 mM; calculated 10-fold molar excess over AE1), then washed thoroughly to remove unreacted DIDS. […]
IOVs incubated with SNO-Hb and washed at pH 8 to remove bound Hb incorporated about 450 pmol NO/milligram of TX-100-extracted IOV protein (FIG. 7D). […] It is important to note that SNO was not detected in extracts of IOVs exposed to NO in the absence of Hb (not shown). […] Following centrifugal separation, washes at pH 7 and solubilization in TX-100, extracts of IOVs were free of Hb as assessed by spectrophotometric detection of heme.

The target in the next assay is Hb (Homo sapiens, UniProt P68871+P69905). Description: Titration of normoxic Hb with NO, fitted UV-visible difference spectra. It counts as biochemical. The arrangement: purchased Apex Bioscience (Research Triangle Park, N.C.). As for the experimental part:
Air-oxygenated Hb was titrated with 0.22 μM NO. Samples were analyzed immediately after NO addition by UV-visible spectrophotometry. Time between additions varied from 3 to 5 minutes.
The extinction coefficient spectra of metHb, deoxyhb, iron nitrosylHb and oxyHb were generated from pure solutions of each species. HbA was diluted into PBS (pH 7.4) to a known final heme concentration [as calculated by the pyridine-hemochromagen method (Antonini, E., et al., p. 13 in Frontiers in Biology, Neuberger, A. and Tatum, E. L. eds., North-Holland Publishing, Co., Amsterdam, London, 1971)]. MetHb was synthesized by adding excess K3FeCN6. DeoxyHb was measured after the addition of dithionite, and nitrosyl- and oxyHb were measured following saturation with each ligand.
Difference spectra were obtained by subtracting the UV-visible spectrum of a given sample before the addition of NO from those after. The simple competition model discussed above, predicts that such difference spectra could be approximated by a linear combination of two standard difference spectra: an oxyHb minus metHb spectrum, which gauges the progress of the NO oxidation reaction, and a deoxyHb minus iron nitrosyHb, which gauges the NO addition reaction; the sum of the combining coefficients is fixed by the mass balance ([NO]0). Standard difference spectra were obtained from UV-visible spectra of authentic samples of metHb, oxyHb, nitrosylHb, and deoxyHb. We determined combining coefficients by a least-squares fitting procedure. Inasmuch as the deoxy- and/or oxyheme concentrations can decline during the competition, an additional component (deoxyHb minus oxyHb) could be expected.
(A) Nitrosyl content of oxyHb (10 mM phosphate 100 μM DTPA, pH 7.4) after exposure to 1.2 μM NO, as measured by photolysis-chemiluminescence (Stamler, J. S., et al., Science, 276:2034-2037, 1997). Nitrosyl yield increases as a function of Hb concentration (P<0.05). Solid symbols, absolute yield of NO bound to Hb (FeNO plus SNO); open symbols, percentage of NO added. Data shown are the average of 7 to 19 experiments±SE. (B) Standard difference spectra of metHb (solid line), deoxyHb (dotted line), and iron nitrosylHb (dashed line) vs. oxyHb. (C) Difference spectra generated from the exposure of NO to normoxic (≈99% oxygen saturation) Hb. NO was added (in 10 aliquots totaling 2.2 μM) to 33 μM Hb in 100 mM phosphate (solid line) or 10 mM phosphate (dotted line) or 10 mM phosphate plus 0.05% borate (dashed line). […] Specifically, spectra in C were fitted, by a least-squares process, to either the simple competition model or the cooperativity model without a mass balance constraint. Cooperativity is present if add increases above that reported in the literature, as a function of oxygen tension.

Turning to `O=S(=O)(O)c1cc(N=C=S)ccc1C=Cc1ccc(N=C=S)cc1S(=O)(=O)O` [DIDS, 4,4′-diisothiocyanatostilbene-2,2′-disulfonic acid], in assay [1], the “effect of prior treatment on transfer of NO groups from SNO-Hb to IOVs” value is recorded as “reduced significantly; also recorded: greatly reduced”.
Turning to `[N]=O` [NO, nitric oxide], the “iron nitrosylHb in fitted difference spectrum” value on Hb (2.2 μM NO, 33 μM Hb, 10 mM phosphate, ≈99% O2) is listed as 54%; at Hb (10 mM phosphate plus 0.05% borate), 85%. In addition, the “metHb in fitted difference spectrum” value at Hb (2.2 μM NO, 33 μM Hb, 100 mM phosphate, ≈99% O2) is given as 95%. Besides, the “added NO accounted for by the spectra” value at Hb (10 mM (low) phosphate) amounted to 50%; on Hb (low phosphate plus borate), 80%.
